# Laboratory results as given in patent US7816374B2, “Method of treating neutrophil-related diseases with topical anesthetics” (Mayo Foundation for Medical Education and Research, priority 2000, dated 2010).
# Where “and” joins values, the source holds several entries; their conditions need not be identical. Equal values may be shown once. Entries after “also recorded” stand apart in the source; their conditions may differ.
# B1: C5a: component of the complement system (protein, UniProt P01031 678-751, looked up)
# C5a anaphylatoxin: TLQKKIEEIAAKYKHSVVKKCCYDGACVNNDETCEQRAARISLGPRCIKAFTECCVVASQLRANISHKDMQLGR
# modifications: C5a anaphylatoxin
# notes: component of the complement system
# B2: G-CSF: granulocyte colony stimulating factor (protein, UniProt P09919 31-207, looked up)
# Granulocyte …: TPLGPASSLPQSFLLKCLEQVRKIQGDGAALQEKLVSECATYKLCHPEELVLLGHSLGIPWAPLSSCPSQALQLAGCLSQLHSGLFLYQGLLQALEGISPELGPTLDTLQLDVADFATTIWQQMEELGMAPALQPTQGAMPAFASAFQRRAGGVLVASHLQSFLEVSYRVLRHLAQP
# Experiments:
# neutrophils [1] = assay: Neutrophil extracellular superoxide production (cytochrome c reduction plate assay); assay type: cell-based, human; conditions: for stimulation of neutrophils to release extracellular superoxide: stimulus screen, G-CSF 5 ug/mL, IFN-γ 100 ng/mL, 1 ug/mL, IL-8 0.5, 1 and 10 ng/mL, LTB4 100 nM and 1 uM
# Description: Neutrophils were purified from heparinized venous blood of normal volunteers by sedimentation through a cushion of 1.085 gm/ml Percoll made in PIPES buffer, pH 7.4, supplemented with 50 mM NaCl, 5 mM KCl, 25 mM NaOH, and 5.4 mM glucose) and centrifuged at 2,000 rmp in a Beckman CS-6KR centrifuge for 30 minutes with no brake. Plasma, mononuclear cells, and Percoll layers were removed and the erythrocytes were lysed by osmotic shock.
# The superoxide production was measured using cytochrome c reduction in a plate assay at a concentration of 50,000 neutrophils/well and was done in duplicate.
# (§1) Neutrophils were isolated in a Percoll gradient to remove PBMC.
# The extracellular superoxide assay (Cytochrome C method) was performed as follows: 1) The wells of a 96-well plate were blocked with 50 ul of 1% HSA for at least 2 hours at 37° C. 2) The Cytochrome C mix (#C-2506, Sigma, St. Louis, Mo.) was prepared as follows: 2.4 mgs of Cytochrome C was resuspended in 1 mL HBSS/HEPES (pH 7.4). One mL of CytoC mix was required for every 0.5×10^6 cells used in the assay. 3) The blocked cells of the 96 well plate were washed twice with 200 μL saline. 4) 4× stimulus and inhibitor stocks were prepared HBSS/HEPES. The cells were resuspended in CytoC mix to 0.5×10^6 cells/mL and kept on ice until ready for use. 5) The final volume in all wells was 200 μL: 100 μl cell/CytoC mix suspension per well (0.05×10^6 cells/well); 50 μL stimulus (if present) per well and 50 μL inhibitor (if present) per well. If stimulus and/or inhibitor was not required for a well, the volume was made up with HBSS/HEPES so that the total volume in the well was 200 μL. 6) Stimuli, inhibitors and cells were added to the wells in the following order: 1) media filler; 2) inhibitors; 3) cells; and 4) stimuli. 7) The 96 well plate was placed in a ThermoMax plate reader and the OD550 was read at 37° C. The plate was read at time 0 and then every 10 minutes for 1 hour, then every 30 minutes for 3 hours. 8) The concentration of superoxide released was calculated by using the following formula to calculate the nmol of Cytochrome C reduced: 19.1*[OD550(time x)−OD550(time 0)]/0.05=nmol Cytochrome C reduced per 1×10^6 cells=nmol superoxide released per 1×10^6 cells.
# [2] = Clinical trial of nebulized lidocaine in severe asthma; assay type: in vivo, human; conditions: twenty patients with severe asthma; 100 mg nebulized lidocaine x4 qd
# [3] = Patient with inflammatory bowel disease-associated severe bronchitis treated with nebulized lidocaine; assay type: in vivo, human; conditions: nebulized lidocaine 100 mg four times daily; within six weeks; one patient
# Description: A patient with inflammatory bowel disease-associated severe bronchitis who had symptoms of copious sputum production (in excess of 150 mi/day), daily cough and chest tightness, and shortness of breath on exertion, who had not responded to topical or systemic glucocorticoids and multiple rounds of antibiotics over an 18 month period was treated. Lamos, J. et al., Arch Internationales De Pharmacodynamie et de Therapie 331:179-188 (1996).
# [4] = Case report of patient with bronchitis treated with lidocaine inhalation; assay type: in vivo, human
# Description: The patient was a person first seen in 1996 with a six month history of harsh cough affecting their both during the night and the day. Copious (about 50 ml per day), thick, yellow to white sputum was produced. They were often awakened at night with chest heaviness and dyspnea. […] When initially evaluated, the patient was receiving prednisone, 30 mg every other day, Salmeterol twice daily and Asthmacort four inhalations four times a day.
# eosinophils = conditions: in vitro; Okada et al. 1998; cited from earlier work
# neutrophils [5] = assay: Lactoferrin release from stimulated neutrophils (ELISA); assay type: cell-based, human; conditions: FIG. 7
# Description: as §1
# To measure lactoferrin, an ELSIA kit was purchased from Calbiochem (San Diego, Calif.) and the protocols and procedures were followed therein.
# When neutrophils begin to invade injured tissue, feedback control of inflammation begins with degranulation of neutrophils and massive release of lactoferrin. The amount of lactoferrin released from neutrophils stimulated with PMA, TNF-α and PAF was measured.
# sputum neutrophilia = assay: Sputum cell counts before and after four weeks of nebulized lidocaine in patients with chronic protracted post-viral or post-irritant cough; assay type: in vivo, human; design: wbc before / wbc after / eos before / eos after: unit not given here
# Description: Yamamoto, C. et al., Chest 112:505-510 (1997); Peleman, R. A. et al., Eur. Resp. Journal 13:839-843 (1999); Gibson, P. G. et al., Thorax 44:693-699 (1989). Induction, collection, and processing of sputum is performed according to the method of Pin and Hargreave. Briefly, if the patient is unable to spontaneously produce a 5 cc sputum sample, sputum induction is performed using ultrasonically nebulized hypertonic saline administered in progressive 2 minute increments followed by attempts to cough and produce sputum. The nebulization continues until a total of 12 minutes have elapsed or the patient produces 5 cc of sputum. The initial specimen is collected in a 50 ml conical tube, vortexed and 1 cc of the sputum is aspirated and placed on ice for cytokine analysis. The remaining volume is weighed, and mixed with equal volumes of dithiothreitol, vortexed, then rocked for 15 min at 37° C. with frequent vortexing. The specimen is analyzed for total and differential cell counting.
# [6] = Serum concentration after lidocaine nebulization (PARI II device); assay type: in vivo, human; conditions: nebulization of up to 375 mg over 10 minutes; four normal subjects and four asthma patients; >1 μg/ml in only one patient out of eight
# Excerpt: Scott, D. B. et al., Br J Anaesth. 48:899-902 (1976); Chinn, W. M. et al., Chest 71:346-348 (1977).
# neutrophils [7] = conditions: in vitro, cited from earlier work
# [8] = cited from earlier work
# [9] = six patients, after four weeks of nebulized lidocaine
molecule,measurement,setting,value
"CCCCC/C=C\C[C@@H](O)/C=C/C=C/C=C\[C@@H](O)CCCC(=O)O [LTB4, leukotriene B4]",stimulation of neutrophils to release extracellular superoxide,neutrophils [1],did not stimulate
"CCCCCCCCCCCCCC(=O)O[C@@H]1[C@@H](C)[C@@]2(O)[C@@H](C=C(CO)C[C@]3(O)C(=O)C(C)=C[C@@H]23)[C@@H]2C(C)(C)[C@]12OC(C)=O [PMA, phorbol-myristate acetate]",stimulation of neutrophils to release extracellular superoxide,neutrophils [1],stimulated; also recorded: stimulates superoxide anion very considerably
"CCN(CC)CC(=O)Nc1c(C)cccc1C [lidocaine, (2-diethylamino)-N-(2,6-dimethylphenyl)acetamide]",patients able to discontinue or reduce the use of oral GC by 80%,[2],seventeen
same,side effects,[2],minimal side effects
same,cough and chest tightness,[3],disappeared
same,sputum volume,[3],diminished to zero
same,TNF-α stimulated neutrophil superoxide anion production,"neutrophils [1]; 3 mM lidocaine, TNF-alpha stimulus, 50,000 neutrophils/well",virtually totally suppresses; also recorded: almost totally inhibited
same,C5a stimulated neutrophil superoxide anion production,"neutrophils [1]; C5a stimulus, FIGS. 6A and 6B",suppresses
same,stimulation of neutrophils (extracellular superoxide) by stimuli,neutrophils [1]; all stimuli with the exception of PMA,inhibits the stimulation of neutrophils in a dose dependent manner
same,PMA induced neutrophil superoxide anion production,"neutrophils [1]; lidocaine, PMA stimulus",does not alter this production; also recorded: not inhibited
same,superoxide anion production by unstimulated neutrophils,"neutrophils [1]; presence and absence of 3 mM lidocaine, no stimulus",no superoxide anion is produced
same,patient-reported course on continued therapy,"[4]; lidocaine by inhalation for the following year, occasional antibiotics",continued improvement
same,sputum volume and cough,"[4]; lidocaine by inhalation, over a span of three weeks, one patient",diminished strikingly
same,"cytokine-stimulated eosinophilopoesis and prolongation of survival, activation, respiratory burst, and degranulation of eosinophils",eosinophils,inhibit
same,lactoferrin release in PMA stimulated neutrophils,neutrophils [5]; PMA stimulus,may have an effect
same,lactoferrin release in neutrophils stimulated with TNF,neutrophils [5]; TNF stimulus,significantly inhibits
same,cough,sputum neutrophilia; [9],clearing of their cough
same,sputum neutrophils,sputum neutrophilia; [9],reduction of sputum neutrophils
same,pmn after,sputum neutrophilia; sputum PMN of individual patients after four weeks of nebulized lidocaine,"568,400 and 352,000 and 617,760 and 79,900 and 1,612,800 and 551,200"
same,pmn before,sputum neutrophilia; sputum PMN of individual patients before lidocaine treatment (baseline),"1,032,200 and 3,569,000 and 1,566,000 and 2,772,000 and 4,093,400 and 1,256,250"
same,wbc after,sputum neutrophilia; sputum WBC of individual patients after four weeks of nebulized lidocaine,"1,160,000 and 1,600,000 and 2,808,000 and 85,000 and 4,480,300 and 2,120,000"
same,wbc before,sputum neutrophilia; sputum WBC of individual patients before lidocaine treatment (baseline),"3,330,000 and 6,050,000 and 2,700,000 and 4,760,000 and 2,512,500"
same,eos after,sputum neutrophilia; sputum eosinophils of individual patients after four weeks of nebulized lidocaine,"0 (2×) and 96,000 and 2,808 and 134,400 and 42,500"
same,eos before,sputum neutrophilia; sputum eosinophils of individual patients before lidocaine treatment (baseline),"0 (3×) and 484,000 and 12,798 and 1,384,200"
same,serum concentration,[6],1.5 µg/mL
same,"activation of neutrophils by G-CSF, TNF-α and GM-CSF",neutrophils [7],inhibits activation
same,neutrophil aggregation and degranulation,neutrophils [7],Inhibition
same,"depolarization of neutrophil membrane potential, superoxide generation and chemiluminescence response in neutrophils",neutrophils [7]; concentration-dependent manner,inhibits
same,systemic glucocorticoid use in steroid-dependent asthma,"[8]; lidocaine inhalation, most adult and pediatric patients",reduces or eliminates systemic glucocorticoids
same,topical glucocorticoid use in mild to moderate asthma,[8]; nebulized lidocaine,able to replace topical glucocorticoids
same,peripheral blood eosinophils when topical glucocorticoids were withdrawn,"[8]; nebulized lidocaine, mild to moderate asthma",prevented the rise
GM-CSF: granulocyte macrophage colony stimulating factor,stimulation of neutrophils to release extracellular superoxide,neutrophils [1],stimulated
IFN-γ: interferon gamma,stimulation of neutrophils to release extracellular superoxide,neutrophils [1],did not stimulate
IL-8: interleukin 8,stimulation of neutrophils to release extracellular superoxide,neutrophils [1],did not stimulate
TNF-α,stimulation of neutrophils to release extracellular superoxide,neutrophils [1],stimulated; also recorded: considerable superoxide anion is released
f-met-leu-phe [fMLP],stimulation of neutrophils to release extracellular superoxide,neutrophils [1],stimulated
B1,stimulation of neutrophils to release extracellular superoxide,neutrophils [1],stimulated; also recorded: stimulates superoxide anion production
B2,stimulation of neutrophils to release extracellular superoxide,neutrophils [1],did not stimulate
